The target in the experiment is T1, human Fatty Acid Synthase (Homo sapiens, UniProt P49327).
T1 construct: made in house
T1 sequence (P49327 whole entry): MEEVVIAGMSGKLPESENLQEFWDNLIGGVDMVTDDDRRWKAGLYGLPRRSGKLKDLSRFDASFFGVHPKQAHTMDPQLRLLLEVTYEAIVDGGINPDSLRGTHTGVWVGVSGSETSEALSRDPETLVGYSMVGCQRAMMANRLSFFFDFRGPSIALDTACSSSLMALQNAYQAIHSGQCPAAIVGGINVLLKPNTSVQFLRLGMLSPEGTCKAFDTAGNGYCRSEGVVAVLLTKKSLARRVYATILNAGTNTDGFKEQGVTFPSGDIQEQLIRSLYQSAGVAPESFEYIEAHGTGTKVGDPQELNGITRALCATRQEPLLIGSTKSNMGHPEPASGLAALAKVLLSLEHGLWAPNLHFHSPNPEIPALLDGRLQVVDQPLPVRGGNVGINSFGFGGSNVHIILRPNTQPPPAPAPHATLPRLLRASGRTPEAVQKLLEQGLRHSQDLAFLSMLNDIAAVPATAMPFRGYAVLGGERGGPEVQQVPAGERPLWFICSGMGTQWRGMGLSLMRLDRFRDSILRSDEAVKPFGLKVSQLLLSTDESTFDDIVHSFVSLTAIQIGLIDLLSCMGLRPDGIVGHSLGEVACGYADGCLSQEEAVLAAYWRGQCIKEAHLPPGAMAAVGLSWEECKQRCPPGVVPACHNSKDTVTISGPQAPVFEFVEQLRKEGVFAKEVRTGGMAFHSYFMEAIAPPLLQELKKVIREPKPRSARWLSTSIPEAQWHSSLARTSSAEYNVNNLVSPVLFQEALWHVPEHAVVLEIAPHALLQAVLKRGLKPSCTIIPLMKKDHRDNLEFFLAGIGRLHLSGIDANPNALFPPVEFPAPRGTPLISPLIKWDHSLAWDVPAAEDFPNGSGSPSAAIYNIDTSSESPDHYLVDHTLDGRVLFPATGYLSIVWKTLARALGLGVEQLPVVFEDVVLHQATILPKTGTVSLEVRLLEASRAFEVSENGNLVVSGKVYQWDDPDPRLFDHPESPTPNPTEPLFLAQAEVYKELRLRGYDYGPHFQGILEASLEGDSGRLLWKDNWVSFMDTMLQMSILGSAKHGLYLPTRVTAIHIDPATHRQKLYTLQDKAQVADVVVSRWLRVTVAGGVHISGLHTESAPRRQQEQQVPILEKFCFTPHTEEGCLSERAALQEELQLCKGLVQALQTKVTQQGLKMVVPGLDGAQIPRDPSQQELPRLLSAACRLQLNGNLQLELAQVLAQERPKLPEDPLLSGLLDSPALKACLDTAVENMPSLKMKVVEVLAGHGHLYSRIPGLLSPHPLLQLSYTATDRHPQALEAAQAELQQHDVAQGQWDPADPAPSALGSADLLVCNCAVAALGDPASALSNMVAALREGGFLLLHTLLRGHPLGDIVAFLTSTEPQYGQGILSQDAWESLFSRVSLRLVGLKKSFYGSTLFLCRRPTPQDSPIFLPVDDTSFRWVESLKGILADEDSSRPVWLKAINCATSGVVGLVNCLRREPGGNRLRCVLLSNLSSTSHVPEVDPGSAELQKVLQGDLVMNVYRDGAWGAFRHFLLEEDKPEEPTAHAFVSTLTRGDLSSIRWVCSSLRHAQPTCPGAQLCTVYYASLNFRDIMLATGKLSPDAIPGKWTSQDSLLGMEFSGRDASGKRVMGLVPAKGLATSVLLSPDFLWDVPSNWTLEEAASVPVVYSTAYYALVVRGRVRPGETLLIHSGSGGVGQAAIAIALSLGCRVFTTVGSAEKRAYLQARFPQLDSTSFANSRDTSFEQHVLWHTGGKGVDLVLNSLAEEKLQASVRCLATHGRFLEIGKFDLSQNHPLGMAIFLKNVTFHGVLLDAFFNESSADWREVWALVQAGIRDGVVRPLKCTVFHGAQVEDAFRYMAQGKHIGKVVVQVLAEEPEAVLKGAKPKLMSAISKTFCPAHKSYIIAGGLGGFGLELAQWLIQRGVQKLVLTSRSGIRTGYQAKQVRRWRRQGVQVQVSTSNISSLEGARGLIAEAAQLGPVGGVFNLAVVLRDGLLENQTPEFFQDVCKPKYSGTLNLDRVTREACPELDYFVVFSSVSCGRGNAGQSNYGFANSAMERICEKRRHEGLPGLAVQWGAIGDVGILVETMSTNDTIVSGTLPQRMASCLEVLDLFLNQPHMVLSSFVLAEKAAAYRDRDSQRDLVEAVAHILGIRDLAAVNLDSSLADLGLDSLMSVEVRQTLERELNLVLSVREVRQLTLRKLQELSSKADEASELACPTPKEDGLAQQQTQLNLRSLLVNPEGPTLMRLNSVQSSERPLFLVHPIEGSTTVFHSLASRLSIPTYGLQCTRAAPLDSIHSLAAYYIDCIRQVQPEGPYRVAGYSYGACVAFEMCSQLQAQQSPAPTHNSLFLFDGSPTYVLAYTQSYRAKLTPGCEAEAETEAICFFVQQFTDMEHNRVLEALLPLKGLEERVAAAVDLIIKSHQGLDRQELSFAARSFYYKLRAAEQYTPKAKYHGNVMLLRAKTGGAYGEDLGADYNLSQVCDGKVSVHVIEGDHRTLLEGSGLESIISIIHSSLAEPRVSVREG
The experiment in a line: Human FAS enzyme assay (decrease in NADPH fluorescence). The experiment is classed as biochemical. To be noted: % inhibition at a concentration of 100 μmolar. Here is the method:
Human and Rat FAS Enzyme Assay.
Fatty acid synthase is an enzyme complex that harbours seven enzymatic activities catalysing the reductive synthesis of long chain fatty acids from acetyl CoA and malonyl CoA to palmitate. When acetyl CoA and malonyl CoA are forming palmitate NADPH is consumed forming NADP. Since NADPH is fluorescent but not NADP the reaction can be measured by analysing the decrease in fluorescence.
Compounds were added to a black 384 well plate (Matrix) in a volume of 5 μl consisting of 20% DMSO and 80% Tris buffer pH 7.5, at a top concentration of 1 mM. NADPH, 30 μl of 166.6 μM, formulated in assay buffer (0.1M Tris ph7.5, 0.1 mM EDTA, 1 mM glutathione, 0.05% BSA), was then added to all of the wells of the plate. Fatty acid synthase Human or rat enzyme (0.4 μg, produced in house), dissolved in 20 mM Tris/HCl pH 7.5, 5 mM BOG, 1 mM TCEP, 10% glycerol, 1 mM EDTA, 150 mM NaCl, was then added to the plate in a volume of 10 μl. Enzyme was added to all but the last two columns of the plate, to which, 10 μl of assay buffer was added (0.1M Tris ph7.5, 0.1 mM EDTA, 1 mM glutathione, 0.05% BSA) to provide a no enzyme assay control. Following a 15-minute incubation period, at room temperature, the plates were read on an Envision plate reader using 340 nm excitation and 460 nm emission filters. This served as a time zero background read. Substrates (an equal mix of both malonyl and acetyl CoA) were then added to the plates in a total volume of 5 μl. The concentrations of malonyl and acetyl CoA in the mixture were 500 μM and 150 μM respectively. Both were prepared as 10 mM stock solutions in distilled water and were subsequently diluted to working concentrations in assay buffer. Plates were then incubated for a further 60 minutes, at room temperature, before being read again on the Envision reader using the same parameters as previously used. The data was analysed by subtracting the background time zero data from that generated following the final 60 minute incubate and the percent inhibition compared to the maximum and minimum assay controls was determined. Sigmoid curves were fitted using Origin 7.5 Client software and IC50 values were determined.
Turning to `Cc1ccc(C(=O)N2CCC(c3ccc(C#N)cc3)CC2)cc1NC(=O)N[C@H]1CC[C@H](NC(=O)OC(C)(C)C)C1` [Example 316, tert-butyl N-[(1S,3S)-3-[[5-[4-(4-cyanophenyl)piperidine-1-carbonyl]-2-methyl-phenyl]carbamoylamino]cyclopentyl]carbamate], the inhibition at 100 µM is 99.6%.
The result for `Cc1csc(CNC(=O)Nc2cc(C(=O)N3CCC(c4ccc(C#N)cc4)CC3)ccc2C)n1` [Example 264, 1-[5-[4-(4-cyanophenyl)piperidine-1-carbonyl]-2-methyl-phenyl]-3-[(4-methyl-1,3-thiazol-2-yl)methyl]urea] reads 90.1%; that for `Cc1ccc(C(=O)N2CCC(c3ccc(C#N)cc3)CC2)cc1NC(=O)NC1CCOCC1` [Example 162, 1-[5-[4-(4-cyanophenyl)piperidine-1-carbonyl]-2-methyl-phenyl]-3-(oxan-4-yl)urea], 84.2%; that for `Cc1ccc(C(=O)N2CCC(c3ccc(C#N)cc3)CC2)cc1NC(=O)NCc1ncco1` [Example 269, 1-[5-[4-(4-cyanophenyl)piperidine-1-carbonyl]-2-methyl-phenyl]-3-(1,3-oxazol-2-ylmethyl)urea], 89.9%.
As for `Cc1ccc(C(=O)N2CCC(c3ccc(C#N)cc3)CC2)cc1NC(=O)NC(C)Cc1c[nH]c2ccccc12` (racemic) [Example 70, (RS)-1-[5-[4-(4-cyanophenyl)piperidine-1-carbonyl]-2-methyl-phenyl]-3-[1-(1H-indol-3-yl)propan-2-yl]urea], the inhibition at 100 µM was 87.7%.
For `COc1ccc([C@@H](C)NC(=O)Nc2cc(C(=O)N3CCC(c4ccc(C#N)cc4)CC3)ccc2C)cc1` [Example 84, 1-[5-[4-(4-cyanophenyl)piperidine-1-carbonyl]-2-methyl-phenyl]-3-[(1R)-1-(4-methoxyphenyl)ethyl]urea], the inhibition at 100 µM came to 92.3%.
The result for `Cc1ccc(C(=O)N2CCC(c3ccc(C#N)cc3)CC2)cc1NC(=O)NCCc1ccc(S(N)(=O)=O)cc1` [Example 57, 1-[5-[4-(4-cyanophenyl)piperidine-1-carbonyl]-2-methyl-phenyl]-3-[2-(4-sulfamoylphenyl)ethyl]urea] reads 96.8%; that for `Cc1ccc(C(=O)N2CCC(c3ccc(C#N)cc3)CC2)cc1NC(=O)NC(C)(C)C` [Example 31, 1-[5-[4-(4-cyanophenyl)piperidine-1-carbonyl]-2-methyl-phenyl]-3-tert-butyl-urea], 83.3%; that for `Cc1ccc(C(=O)N2CCC(c3ccc(C#N)cc3)CC2)cc1NC(=O)N[C@@H](C)c1ccccc1` [Example 105, 1-[5-[4-(4-cyanophenyl)piperidine-1-carbonyl]-2-methyl-phenyl]-3-[(1S)-1-phenylethyl]urea], 92.7%.
The same measure for `Cc1ccc(C(=O)N2CCC(c3ccc(C#N)cc3)CC2)cc1NC(=O)NCCN(C)S(=O)(=O)C(C)C` [Example 214, 1-[5-[4-(4-cyanophenyl)piperidine-1-carbonyl]-2-methyl-phenyl]-3-[2-(methyl-propan-2-ylsulfonyl-amino)ethyl]urea]: 89.8%.
Turning to `Cc1ccc(NC(=O)NCc2ccccn2)cc1C(=O)N1CCC(c2ccc(C#N)cc2)CC1` [Example 414, 1-[3-[4-(4-cyanophenyl)piperidine-1-carbonyl]-4-methylphenyl]-3-(pyridin-2-ylmethyl)urea], the inhibition at 100 µM came to 83.6%.
The same measure for `N#Cc1ccc(C2CCN(C(=O)c3cc(NC(=O)NCc4ccccc4)ccc3F)CC2)cc1` [Example 224, 1-benzyl-3-[3-[4-(4-cyanophenyl)piperidine-1-carbonyl]-4-fluoro-phenyl]urea]: 71.9%; for `Cc1ccc(C(=O)N2CCC(c3ccc(C#N)cc3)CC2)cc1NC(=O)NCCC(N)=O` [Example 126, 3-[[5-[4-(4-cyanophenyl)piperidine-1-carbonyl]-2-methyl-phenyl]carbamoylamino]propanamide]: 87.4%; for `Cc1ccc(C(=O)N2CCC(c3ccc(C#N)cc3)CC2)cc1NC(=O)NC1CCN(C(=O)OC(C)(C)C)CC1` [Example 208, tert-butyl 4-[[5-[4-(4-cyanophenyl)piperidine-1-carbonyl]-2-methyl-phenyl]carbamoylamino]piperidine-1-carboxylate]: 84.9%.
The same measure for `Cc1ccc(C(=O)N2CCC(c3ccc(C#N)cc3)CC2)cc1NC(=O)N(C)CCO` [Example 392, 3-[5-[4-(4-cyanophenyl)piperidine-1-carbonyl]-2-methylphenyl]-1-(2-hydroxyethyl)-1-methylurea]: 76.3%; for `Cc1ccc(C(=O)N2CCC(c3ccc(C#N)cc3)CC2)cc1NC(=O)NCC(C)(C)NC(=O)C(C)(C)C` [Example 205, N-[1-[[5-[4-(4-cyanophenyl)piperidine-1-carbonyl]-2-methyl-phenyl]carbamoylamino]-2-methyl-propan-2-yl]-2,2-dimethyl-propanamide]: 88.2%.
The result for `CC(=O)N1CC[C@@H](NC(=O)Nc2cc(C(=O)N3CCC(c4ccc(C#N)cc4)CC3)ccc2C)C1` [Example 275, 3-[(3R)-1-acetylpyrrolidin-3-yl]-1-[5-[4-(4-cyanophenyl)piperidine-1-carbonyl]-2-methyl-phenyl]urea] reads 106%.
In the case of `CC(C)NC(=O)Nc1cc(C(=O)N2CCC(c3ccc(C#N)cc3)CC2)ccc1[S+](C)[O-]` (stereo not shown) [Example 386, 3-[5-[4-(4-cyanophenyl)piperidine-1-carbonyl]-2-methylsulfinylphenyl]-1-propan-2-ylurea], the inhibition at 100 µM is 67.4%.
Regarding `Cc1ccc(C(=O)N2CCC(c3ccc(C#N)cc3)CC2)cc1NC(=O)NC1CCS(=O)(=O)C1` (stereo not shown) [Example 169, 1-[5-[4-(4-cyanophenyl)piperidine-1-carbonyl]-2-methyl-phenyl]-3-(1,1-dioxothiolan-3-yl)urea], the inhibition at 100 µM worked out at 95.6%.
The same measure for `Cc1ccc(C(=O)N2CCC(O)(c3ccc(Br)cc3)CC2)cc1NC(=O)NCc1ccccc1` [Example 40, 3-benzyl-1-[5-[4-(4-bromophenyl)-4-hydroxy-piperidine-1-carbonyl]-2-methyl-phenyl]urea]: 71.5%; for `COC(=O)[C@H](CNC(=O)Nc1cc(C(=O)N2CCC(c3ccc(C#N)cc3)CC2)ccc1C)NC(=O)OC(C)(C)C` [Example 177, Methyl (2S)-3-[[5-[4-(4-cyanophenyl)piperidine-1-carbonyl]-2-methyl-phenyl]carbamoylamino]-2-[(2-methylpropan-2-yl)oxycarbonylamino]propanoate]: 94.8%; for `CC(C)NC(=O)Nc1cccc(C(=O)N2CCC(c3ccc(C#N)cc3)CC2)c1` [Example 46, 3-[3-[4-(4-cyanophenyl)piperidine-1-carbonyl]phenyl]-1-propan-2-yl-urea]: 90.3%.
For `CC(=O)NCCNC(=O)Nc1cc(C(=O)N2CCC(c3ccc(C(F)(F)F)cc3)CC2)ccc1C` [Example 326, N-[2-[[2-methyl-5-[4-[4-(trifluoromethyl)phenyl]piperidine-1-carbonyl]phenyl]carbamoylamino]ethyl]acetamide], the inhibition at 100 µM is 91.8%.
In the case of `Cc1ccc(C(=O)N2CCC(c3ccc(C#N)cc3)CC2)cc1NC(=O)NCC1CC1` [Example 288, 1-[5-[4-(4-cyanophenyl)piperidine-1-carbonyl]-2-methyl-phenyl]-3-(cyclopropylmethyl)urea], the inhibition at 100 µM was 99.8%.
The result for `CCOCCCNC(=O)Nc1ccc(C)c(C(=O)N2CCC(c3ccc(C#N)cc3)CC2)c1` [Example 416, 3-[3-[4-(4-cyanophenyl)piperidine-1-carbonyl]-4-methylphenyl]-1-(3-ethoxypropyl)urea] reads 90.8%; that for `Cc1ccc(C(=O)N2CCC(c3ccc(C#N)cc3)CC2)cc1NC(=O)NC1CCCC[C@@H]1C(N)=O` (stereo partly drawn) [Example 134, (1S)-2-[[5-[4-(4-cyanophenyl)piperidine-1-carbonyl]-2-methyl-phenyl]carbamoylamino]cyclohexane-1-carboxamide], 84.6%.
The same measure for `CNC(=O)Nc1ccc(C)c(C(=O)N2CCC(c3ccc(C#N)cc3)CC2)c1` [Example 18, 3-[3-[4-(4-cyanophenyl)piperidine-1-carbonyl]-4-methyl-phenyl]-1-methyl-urea]: 75.9%; for `Cc1ccc(C(=O)N2CCC(c3ccc(C#N)cc3)CC2)cc1NC(=O)N1CC(N)C1` [Example 306, 3-amino-N-[5-[4-(4-cyanophenyl)piperidine-1-carbonyl]-2-methyl-phenyl]azetidine-1-carboxamide]: 84.7%.

As a reminder, the inhibition is the drop in the measured response relative to a control, in per cent.

The values are drawn from US20090118332A1, “Therapeutic Agents - 551” (AstraZeneca AB, priority 2006, published 2009).
